Results taken from paper PMC5810560 (Chemico-biological interactions, 2017).
Where “and” joins values, the source holds several entries; their conditions need not be identical. Equal values may be shown once. Read-outs that look alike come from different tables or passages of the source.

Key:
[1] = rats, brain homogenates, 50 μmol IM exposure; ref Petroianu et al., 2007; cited from earlier work
[2] = mice dosed with 80 mg/kg; ref Radic et al., 2012; cited from earlier work
[3] = test system: Human cerebral microvascular cells (HCMEC/D3); experiment: Brain endothelial cell traversal; conditions: 100 μM in HBSS, apical to basolateral
[4] = RS194B plasma pharmacokinetics; conditions: for AUC0-t: t = 24 h
[5] = Renal clearance: urine radioactivity and HPLC of urine; conditions: for percent of the administered dose in urine: guinea pig
[6] = Parallel artificial membrane permeability assay; conditions: 100 μM in HBSS
p-gp (MDR1) = p-gp (MDR1) (Homo sapiens, UniProt P08183); experiment: MDR1 efflux assessment in MDR1-MDCK and MDCK parent cells; conditions: MDR1-MDCK vs MDCK cells, 100 μM; NFR > 1 = possible p-gp substrate
p-gp (MDR1), sequence (P08183 whole entry, looked up, the tested form may be a part): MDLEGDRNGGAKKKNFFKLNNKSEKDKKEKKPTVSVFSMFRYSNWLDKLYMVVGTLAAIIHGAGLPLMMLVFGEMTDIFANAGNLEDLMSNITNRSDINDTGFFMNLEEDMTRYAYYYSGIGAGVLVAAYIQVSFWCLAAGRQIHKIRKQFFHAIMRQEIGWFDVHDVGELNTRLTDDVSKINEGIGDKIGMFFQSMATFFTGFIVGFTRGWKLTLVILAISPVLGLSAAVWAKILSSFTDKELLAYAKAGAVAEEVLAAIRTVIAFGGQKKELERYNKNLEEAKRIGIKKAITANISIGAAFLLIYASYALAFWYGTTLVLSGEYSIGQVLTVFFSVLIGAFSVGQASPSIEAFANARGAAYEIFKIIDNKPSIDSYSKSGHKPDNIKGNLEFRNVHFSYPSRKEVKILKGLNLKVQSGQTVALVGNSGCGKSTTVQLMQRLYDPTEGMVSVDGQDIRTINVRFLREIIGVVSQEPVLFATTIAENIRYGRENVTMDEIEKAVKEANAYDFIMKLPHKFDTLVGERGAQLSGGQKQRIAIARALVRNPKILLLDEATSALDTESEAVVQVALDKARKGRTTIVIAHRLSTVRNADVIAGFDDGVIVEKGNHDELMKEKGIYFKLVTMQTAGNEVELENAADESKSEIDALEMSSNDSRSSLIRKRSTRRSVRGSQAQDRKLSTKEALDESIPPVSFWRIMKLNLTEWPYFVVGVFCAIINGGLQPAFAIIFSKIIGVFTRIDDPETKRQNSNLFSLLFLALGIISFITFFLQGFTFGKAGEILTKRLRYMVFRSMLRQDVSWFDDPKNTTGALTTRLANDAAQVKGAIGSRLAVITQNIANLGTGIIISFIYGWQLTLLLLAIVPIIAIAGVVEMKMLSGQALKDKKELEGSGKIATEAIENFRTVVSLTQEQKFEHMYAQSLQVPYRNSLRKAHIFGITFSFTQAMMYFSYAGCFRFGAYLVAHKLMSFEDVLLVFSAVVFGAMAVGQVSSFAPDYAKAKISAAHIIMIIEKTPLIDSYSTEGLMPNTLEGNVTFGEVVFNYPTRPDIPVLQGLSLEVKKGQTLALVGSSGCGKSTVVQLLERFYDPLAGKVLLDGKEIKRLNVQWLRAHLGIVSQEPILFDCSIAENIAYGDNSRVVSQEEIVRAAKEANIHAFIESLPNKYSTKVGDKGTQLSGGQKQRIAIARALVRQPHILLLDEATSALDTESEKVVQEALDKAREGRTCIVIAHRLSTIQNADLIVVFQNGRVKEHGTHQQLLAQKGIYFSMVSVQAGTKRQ

[7] = RS194B biodistribution / brain penetration in perfused tissues; conditions: for Tissue level at Cmax, percent of administered dose, Brain / Tissue level at Cmax, percent of administered dose, Heart / Tissue level at Cmax, percent of administered dose, Kidney / Tissue level at Cmax, percent of administered dose, Liver / Tissue level at Cmax, percent of administered dose, Lung / Tissue level at Cmax, percent of administered dose, Spleen: total tissue weight
[8] = dose increase from 10 to 200 mg/kg (20-fold), IV
[9] = guinea pig plasma, single IM dose 50 mg/kg
[10] = guinea pig plasma, single IV dose 10 mg/kg
[11] = guinea pig plasma, single IV dose 50 mg/kg
[12] = guinea pig plasma, single IV dose 100 mg/kg
[13] = guinea pig plasma, single IV dose 200 mg/kg
[14] = guinea pig, after IV administration, post dose

C[n+]1ccccc1/C=N/O [2-PAM, pralidoxime chloride]
brain/plasma ratio [1]: 0.056

O=C(C=NO)NCCN1CCCCCC1 [RS194B]
brain/plasma ratio [2]: 0.3
permeability across HCMEC/D3 monolayer relative to controls [3]: permeability was improved over that of 2-PAM, but was lower than that of a known permeable compound
increase in mean AUC0-t [4, 8]: 32 fold
increase in mean C0 [4, 8]: 25 fold
power regression slope, AUC0-t vs dose ([4]; dose range 10-200 mg/kg IV): 1.13
power regression slope, C0 vs dose ([4]; dose range 10-200 mg/kg IV): 1.09
tmax ([4]; guinea pig plasma, IM 50 mg/kg): 30 min
mean apparent distribution half-life (t1/2α), range ([4]; guinea pig plasma, across four IV doses 10-200 mg/kg): 46.8 to 90 min
AUC0-inf [4, 9]: 78.74 ± 3.75 µg·h/mL
C0 [4, 9]: 24.90 ± 1.44 µg/mL
CL [4, 9]: 641.80 ± 31.32 mL/h/kg
T1/2;β [4, 9]: 8.53 ± 1.49 h
Vd [4, 9]: 7729 ± 1088.99 mL/kg
t1/2α [4, 9]: 52.2 ± 7.8 min
AUC0-t [4, 9]: 73.50 ± 2.41 µg·h/mL
AUC0-inf [4, 10]: 17.53 ± 1.35 µg·h/mL
C0 [4, 10]: 6.23 ± 0.15 µg/mL
CL [4, 10]: 590.51 ± 51.87 mL/h/kg
T1/2;β [4, 10]: 10.41 ± 1.54 h
Vd [4, 10]: 8675.15 ± 1999.77 mL/kg
t1/2α [4, 10]: 47.4 ± 4.2 min
AUC0-t [4, 10]: 15.27 ± 1.23 µg·h/mL
C0 [4, 11]: 42.77 ± 2.5 µg/mL
CL [4, 11]: 546.65 ± 27.44 mL/h/kg
T1/2;β [4, 11]: 10.68 ± 1.94 h
Vd [4, 11]: 8378.18 ± 1448.68 mL/kg
t1/2α [4, 11]: 61.8 ± 16.8 min
AUC0-t [4, 11]: 83.80 ± 4.05 µg·h/mL
AUC0-inf [4, 12]: 223.60 ± 14.56 µg·h/mL
C0 [4, 12]: 93.18 ± 3.4 µg/mL
CL [4, 12]: 455.89 ± 26.85 mL/h/kg
T1/2;β [4, 12]: 12.87 ± 2.16 h
Vd [4, 12]: 8322.03 ± 1442.65 mL/kg
t1/2α [4, 12]: 46.8 ± 3 min
AUC0-t [4, 12]: 188.05 ± 11.10 µg·h/mL
AUC0-inf [4, 13]: 530.83 ± 57.86 µg·h/mL
C0 [4, 13]: 157.66 ± 4.34 µg/mL
CL [4, 13]: 400.51 ± 44.01 mL/h/kg
T1/2;β [4, 13]: 9.75 ± 1.83 h
Vd [4, 13]: 5802.08 ± 1329.87 mL/kg
t1/2α [4, 13]: 90 ± 12 min
AUC0-t [4, 13]: 488.52 ± 63.16 µg·h/mL
plasma t1/2 ([4]; guinea pig, as summarised in abstract): ~1 h
radioactivity recovered in the urine ([5]; first 4 h post dose, three highest dose concentrations): over 60%
metabolic stability (HPLC of 0-4 h urine) ([5]; guinea pig urine, one radioactive peak matching RS194B standard): metabolically stable
percent of the administered dose in urine ([5]; IV 10 mg/kg, first 24 h): 11-28%
percent of the administered dose in urine ([5]; IV 50 mg/kg, first 24 hr post dose): 49-77%
percent of the administered dose in urine ([5]; IV 100 mg/kg, first 24 hr post dose): 46-68%
percent of the administered dose in urine ([5]; IV 200 mg/kg, first 24 hr post dose): 59-79%
effective permeability (Peff), PAMPA ([6]; five hours, 25°C, vs threshold for moderate permeability): < 2e-06 cm/s
PAMPA diffusion relative to controls ([6]; vs 2-PAM and diazepam positive control): increased diffusion relative to the 2-PAM standard of care, rate of permeation was dramatically lower than the diazepam positive control
net flux ratio (NFR) (p-gp (MDR1)): ≤ 1
brain/ plasma ([7]; guinea pig, IM 50 mg/kg, 0.08 hr (brain Cmax)): 0.058 and 0.06 ± 0.002
brain/ plasma ([7]; guinea pig, IM 50 mg/kg, 0.25 hr): 0.04 ± 0.006
brain/ plasma ([7]; guinea pig, IM 50 mg/kg, 0.5 hr): 0.03 ± 0.002
brain/ plasma ([7]; guinea pig, IM 50 mg/kg, 1 hr): 0.02 ± 0.010
brain/ plasma ([7]; guinea pig, IM 50 mg/kg, 2 hr): 0.02 ± 0.001
brain/ plasma ([7]; guinea pig, IM 50 mg/kg, 4 hr): 0.06 ± 0.005
brain/ plasma ([7]; guinea pig, IM 50 mg/kg, 8 hr): 0.08 ± 0.007
brain/ plasma ([7]; guinea pig, IM 50 mg/kg, 24 hr): 0.19 ± 0.045
Tissue level at Cmax, percent of administered dose, Brain ([7]; guinea pig, IM 50 mg/kg): 0.02 ± 0.005% of administered dose
Tissue level at Cmax, percent of administered dose, Heart ([7]; guinea pig, IM 50 mg/kg): 0.07 ± 0.02% of administered dose
Tissue level at Cmax, percent of administered dose, Kidney ([7]; guinea pig, IM 50 mg/kg): 2.87 ± 0.48% of administered dose
Tissue level at Cmax, percent of administered dose, Liver ([7]; guinea pig, IM 50 mg/kg): 7.04 ± 0.61% of administered dose
Tissue level at Cmax, percent of administered dose, Lung ([7]; guinea pig, IM 50 mg/kg): 0.67 ± 0.16% of administered dose
Tissue level at Cmax, percent of administered dose, Spleen ([7]; guinea pig, IM 50 mg/kg): 0.03 ± 0.01% of administered dose
brain-to-plasma ratio at later time points over ratio at Tmax ([7]; guinea pig, IM exposure): 3.2 times
brain/ plasma ([7]; guinea pig, IV 10 mg/kg, 0.08 hr (brain Cmax)): 0.04 ± 0.001
brain/ plasma ([7]; guinea pig, IV 10 mg/kg, 0.25 hr): 0.040 ±0.002
brain/ plasma ([7]; guinea pig, IV 10 mg/kg, 0.5 hr): 0.03 ± 0.002
brain/ plasma ([7]; guinea pig, IV 10 mg/kg, 1 hr): 0.02 ± 0.001
brain/ plasma ([7]; guinea pig, IV 10 mg/kg, 2 hr): 0.03 ± 0.003
brain/ plasma ([7]; guinea pig, IV 10 mg/kg, 4 hr): 0.05 ± 0.003
brain/ plasma ([7]; guinea pig, IV 10 mg/kg, 8 hr): 0.09 ± 0.011
brain/ plasma ([7]; guinea pig, IV 10 mg/kg, 24 hr): 0.11 ± 0.035
Tissue level at Cmax, percent of administered dose, Heart ([7]; guinea pig, IV 10 mg/kg): 0.05 ± 0.01% of administered dose
Tissue level at Cmax, percent of administered dose, Kidney ([7]; guinea pig, IV 10 mg/kg): 5.19 ± 0.23% of administered dose
Tissue level at Cmax, percent of administered dose, Liver ([7]; guinea pig, IV 10 mg/kg): 8.76 ± 0.32% of administered dose
Tissue level at Cmax, percent of administered dose, Lung ([7]; guinea pig, IV 10 mg/kg): 0.45 ± 0.04% of administered dose
Tissue level at Cmax, percent of administered dose, Spleen ([7]; guinea pig, IV 10 mg/kg): 0.04 ± 0.01% of administered dose
Tissue level at Cmax, percent of administered dose, Brain ([7]; guinea pig, IV 10 mg/kg, 10 mg/kg): 0.03% of administered dose and 0.03 ± 0.002% of administered dose
brain/ plasma ([7]; guinea pig, IV 50 mg/kg, 0.08 hr (brain Cmax)): 0.09 ± 0.006
brain/ plasma ([7]; guinea pig, IV 50 mg/kg, 0.25 hr): 0.08 ± 0.005
brain/ plasma ([7]; guinea pig, IV 50 mg/kg, 0.5 hr): 0.05 ± 0.003
brain/ plasma ([7]; guinea pig, IV 50 mg/kg, 1 hr): 0.03 ± 0.014
brain/ plasma ([7]; guinea pig, IV 50 mg/kg, 2 hr): 0.03 ± 0.002
brain/ plasma ([7]; guinea pig, IV 50 mg/kg, 4 hr): 0.07 ± 0.004
brain/ plasma ([7]; guinea pig, IV 50 mg/kg, 8 hr): 0.07 ± 0.009
brain/ plasma ([7]; guinea pig, IV 50 mg/kg, 24 hr): 0.18 ± 0.062
Tissue level at Cmax, percent of administered dose, Brain ([7]; guinea pig, IV 50 mg/kg): 0.09 ± 0.01% of administered dose
Tissue level at Cmax, percent of administered dose, Heart ([7]; guinea pig, IV 50 mg/kg): 0.06 ± 0.01% of administered dose
Tissue level at Cmax, percent of administered dose, Kidney ([7]; guinea pig, IV 50 mg/kg): 5.16 ± 0.52% of administered dose
Tissue level at Cmax, percent of administered dose, Liver ([7]; guinea pig, IV 50 mg/kg): 8.60 ± 0.48% of administered dose
Tissue level at Cmax, percent of administered dose, Lung ([7]; guinea pig, IV 50 mg/kg): 0.95 ± 0.12% of administered dose
Tissue level at Cmax, percent of administered dose, Spleen ([7]; guinea pig, IV 50 mg/kg): 0.08 ± 0.01% of administered dose
brain/ plasma ([7]; guinea pig, IV 100 mg/kg, 0.08 hr (brain Cmax)): 0.12 ± 0.006
brain/ plasma ([7]; guinea pig, IV 100 mg/kg, 0.25 hr): 0.10 ± 0.008
brain/ plasma ([7]; guinea pig, IV 100 mg/kg, 0.5 hr): 0.12 ± 0.007
brain/ plasma ([7]; guinea pig, IV 100 mg/kg, 1 hr): 0.05 ± 0.001
brain/ plasma ([7]; guinea pig, IV 100 mg/kg, 2 hr): 0.05 ± 0.005
brain/ plasma ([7]; guinea pig, IV 100 mg/kg, 4 hr): 0.08 ± 0.005
brain/ plasma ([7]; guinea pig, IV 100 mg/kg, 8 hr): 0.08 ± 0.010
brain/ plasma ([7]; guinea pig, IV 100 mg/kg, 24 hr): 0.06 ± 0.008
Tissue level at Cmax, percent of administered dose, Brain ([7]; guinea pig, IV 100 mg/kg): 0.11 ± 0.01% of administered dose
Tissue level at Cmax, percent of administered dose, Heart ([7]; guinea pig, IV 100 mg/kg): 0.05 ± 0.01% of administered dose
Tissue level at Cmax, percent of administered dose, Kidney ([7]; guinea pig, IV 100 mg/kg): 3.81 ± 0.42% of administered dose
Tissue level at Cmax, percent of administered dose, Liver ([7]; guinea pig, IV 100 mg/kg): 8.32 ± 0.42% of administered dose
Tissue level at Cmax, percent of administered dose, Lung ([7]; guinea pig, IV 100 mg/kg): 0.77 ± 0.04% of administered dose
Tissue level at Cmax, percent of administered dose, Spleen ([7]; guinea pig, IV 100 mg/kg): 0.07 ± 0.01% of administered dose
brain/ plasma ([7]; guinea pig, IV 200 mg/kg, 0.08 hr (brain Cmax)): 0.18 ± 0.013
brain/ plasma ([7]; guinea pig, IV 200 mg/kg, 0.25 hr): 0.19 ± 0.012
brain/ plasma ([7]; guinea pig, IV 200 mg/kg, 0.5 hr): 0.27 ± 0.080
brain/ plasma ([7]; guinea pig, IV 200 mg/kg, 1 hr): 0.15 ± 0.028
brain/ plasma ([7]; guinea pig, IV 200 mg/kg, 2 hr): 0.08 ± 0.009
brain/ plasma ([7]; guinea pig, IV 200 mg/kg, 4 hr): 0.08 ± 0.005
brain/ plasma ([7]; guinea pig, IV 200 mg/kg, 8 hr): 0.12 ± 0.010
brain/ plasma ([7]; guinea pig, IV 200 mg/kg, 24 hr): 0.22 ± 0.071
Tissue level at Cmax, percent of administered dose, Heart ([7]; guinea pig, IV 200 mg/kg): 0.08 ± 0.01% of administered dose
Tissue level at Cmax, percent of administered dose, Kidney ([7]; guinea pig, IV 200 mg/kg): 3.65 ± 0.48% of administered dose
Tissue level at Cmax, percent of administered dose, Liver ([7]; guinea pig, IV 200 mg/kg): 5.25 ± 0.32% of administered dose
Tissue level at Cmax, percent of administered dose, Lung ([7]; guinea pig, IV 200 mg/kg): 0.85 ± 0.04% of administered dose
Tissue level at Cmax, percent of administered dose, Spleen ([7]; guinea pig, IV 200 mg/kg): 0.12 ± 0.01% of administered dose
Tissue level at Cmax, percent of administered dose, Brain ([7]; guinea pig, IV 200 mg/kg, 200 mg/kg): 0.18% of administered dose and 0.18 ± 0.01% of administered dose
time of tissue Cmax, all tissues except the liver [7, 14]: 5 to 15 min
time of tissue Cmax, liver [7, 14]: 30 min
heart, percent of the administered dose at Cmax ([7]; mean over the dose range, IV): 0.06%
all other tissues, percent of the administered dose at Cmax ([7]; tissues other than liver and kidney, IV): less than 1%
